# Reference: patent US12600725B2 (Memorial Sloan-Kettering Cancer Center, priority 2013, dated 2026)
# Values joined by “and” are separate entries in the source; they are usually repeats but may differ in a detail not shown here. Equal entries are not always repeated. “Also recorded” adds a separate entry of the source. Where two headings read alike, the source gives them in different places.
# Key:
# [1] = target: T1, Trap-1 (Homo sapiens, UniProt Q12931); conditions: for decrease in binding efficacy for Trap-1: relative to Hsp90; for loss of affinity for Trap-1: Hsp90 vs Trap-1
# T1 sequence (Q12931 60-704): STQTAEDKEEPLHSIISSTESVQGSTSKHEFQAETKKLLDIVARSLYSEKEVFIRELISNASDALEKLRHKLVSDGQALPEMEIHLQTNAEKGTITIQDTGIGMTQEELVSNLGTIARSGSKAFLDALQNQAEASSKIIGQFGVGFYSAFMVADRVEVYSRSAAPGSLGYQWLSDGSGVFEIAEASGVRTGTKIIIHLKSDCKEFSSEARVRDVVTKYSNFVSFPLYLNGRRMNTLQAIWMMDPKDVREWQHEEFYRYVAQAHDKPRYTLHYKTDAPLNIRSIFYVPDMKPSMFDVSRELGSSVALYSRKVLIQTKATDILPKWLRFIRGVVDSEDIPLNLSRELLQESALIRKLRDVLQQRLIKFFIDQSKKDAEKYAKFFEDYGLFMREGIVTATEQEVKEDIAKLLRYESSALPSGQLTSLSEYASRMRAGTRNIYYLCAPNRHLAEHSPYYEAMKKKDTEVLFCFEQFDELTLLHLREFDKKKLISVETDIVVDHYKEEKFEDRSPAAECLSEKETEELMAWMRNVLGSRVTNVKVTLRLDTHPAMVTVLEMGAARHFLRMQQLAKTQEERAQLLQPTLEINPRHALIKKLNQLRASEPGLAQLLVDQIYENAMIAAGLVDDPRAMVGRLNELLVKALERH
# [2] = tested on: Grp94; conditions: Hsp90 vs Grp94
# [3] = target: T2, Grp94 (Canis lupus familiaris, UniProt P41148); conditions: read-out: Grp94 IC50; 43a as FP probe
# T2 sequence (P41148 with tags, fused parts or gaps DELINS287-327GGGG): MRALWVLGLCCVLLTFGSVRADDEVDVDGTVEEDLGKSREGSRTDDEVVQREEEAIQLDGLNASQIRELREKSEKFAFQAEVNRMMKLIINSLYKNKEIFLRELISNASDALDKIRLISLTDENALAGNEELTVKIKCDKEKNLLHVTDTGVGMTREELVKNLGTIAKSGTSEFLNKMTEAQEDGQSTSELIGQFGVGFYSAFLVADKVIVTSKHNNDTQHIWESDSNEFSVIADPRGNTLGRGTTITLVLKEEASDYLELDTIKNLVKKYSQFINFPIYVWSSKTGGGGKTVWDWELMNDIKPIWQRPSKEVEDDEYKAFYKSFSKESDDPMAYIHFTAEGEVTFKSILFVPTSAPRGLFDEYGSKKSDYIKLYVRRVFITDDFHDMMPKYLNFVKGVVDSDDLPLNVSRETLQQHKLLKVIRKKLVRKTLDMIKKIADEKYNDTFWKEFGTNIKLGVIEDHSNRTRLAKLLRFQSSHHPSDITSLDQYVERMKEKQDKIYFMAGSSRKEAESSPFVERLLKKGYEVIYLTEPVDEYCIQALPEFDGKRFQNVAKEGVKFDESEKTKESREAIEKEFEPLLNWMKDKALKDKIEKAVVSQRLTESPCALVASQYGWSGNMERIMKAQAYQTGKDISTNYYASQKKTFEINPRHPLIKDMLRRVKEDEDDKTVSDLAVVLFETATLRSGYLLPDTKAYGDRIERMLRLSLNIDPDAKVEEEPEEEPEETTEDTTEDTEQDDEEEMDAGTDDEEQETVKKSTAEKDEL
# [4] = target: T1, Trap-1; conditions: read-out: TRAP-1
# [5] = target: T3, Hsp90α (Homo sapiens, UniProt P07900); experiment: biochemical; conditions: FP competition, 6 nM Cy3B-GM, 10 nM protein, 4° C. for 24 h
# [6] = target: T2, Grp94; conditions: read-out: Grp94; FP competition, 6 nM Cy3B-GM, 10 nM protein, 4° C. for 24 h
# [7] = target: Hsp90β (Homo sapiens, UniProt P08238)
# Sequence of Hsp90β (P08238 whole entry): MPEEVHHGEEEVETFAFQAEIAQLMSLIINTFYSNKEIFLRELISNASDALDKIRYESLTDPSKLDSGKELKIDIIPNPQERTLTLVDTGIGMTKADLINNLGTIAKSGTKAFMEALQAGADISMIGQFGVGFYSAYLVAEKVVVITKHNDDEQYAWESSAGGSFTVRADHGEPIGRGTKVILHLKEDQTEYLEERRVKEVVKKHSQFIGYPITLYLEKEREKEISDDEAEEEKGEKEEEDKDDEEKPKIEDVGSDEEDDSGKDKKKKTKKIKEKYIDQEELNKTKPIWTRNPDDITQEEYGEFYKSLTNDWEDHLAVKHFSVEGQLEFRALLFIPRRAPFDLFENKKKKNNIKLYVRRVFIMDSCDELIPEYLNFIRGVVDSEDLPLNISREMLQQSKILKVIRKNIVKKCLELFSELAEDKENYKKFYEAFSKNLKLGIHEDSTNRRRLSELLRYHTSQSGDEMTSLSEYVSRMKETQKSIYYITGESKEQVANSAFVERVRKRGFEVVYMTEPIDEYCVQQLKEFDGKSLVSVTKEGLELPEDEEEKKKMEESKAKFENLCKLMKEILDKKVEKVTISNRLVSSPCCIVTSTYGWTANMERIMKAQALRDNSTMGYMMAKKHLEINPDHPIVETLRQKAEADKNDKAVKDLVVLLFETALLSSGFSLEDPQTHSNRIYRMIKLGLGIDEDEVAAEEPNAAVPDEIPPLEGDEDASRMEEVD
# [8] = target: T3, Hsp90α; conditions: read-out: Hsp90α; FP competition, 6 nM Cy3B-GM, 10 nM protein, 4° C. for 24 h
# [9] = tested on: MDA-MB-468 cells; experiment: Growth inhibition assay (Alamar blue); type: cell-based; conditions: Homo sapiens
# Method: We evaluated the antiproliferative effects of inhibitors using the dye Alamar blue. This reagent offers a rapid objective measure of cell viability in cell culture, and it uses the indicator dye resazurin to measure the metabolic capacity of cells, an indicator of cell viability. Briefly, MDA-MB-468 cells were plated on Costar 96-well plates at 1500 cells/well. Cells were allowed to incubate for 24 h at 37° C. before drug treatment. Drugs were added in triplicate at the indicated concentrations, and the plate was incubated for 72 h. Alamar Blue (440 μM) was added, and the plate read 6 h later using Softmax Pro 6 software (Fluorescence intensity mode, excitation 530 nm, emission 580 nm, with 560 nm dichroic mirror). Results were analyzed using GraphPad Prism 5. The percentage cell growth inhibition was calculated by comparing fluorescence readings obtained from treated versus control cells, accounting for initial cell population (time zero).
# [10] = tested on: HER2 at the plasma membrane of SKBr3 cells; experiment: Immunofluorescence of HER2 architecture at the plasma membrane; type: cell-based
# Method: We next investigated the biological significance of the unique association of HER^2 with Grp94 at the plasma membrane of SKBr3 cells. Because the Grp94 inhibitors described here target the ATP-binding pocket of Grp94, they affect Grp94 chaperone activity. Therefore we hypothesized that Grp94 may act on HER^2 at the plasma membrane to stabilize the protein and to regulate its function.
# Immunofluorescence. Cells were seeded and grown onto culture slides (BD Falcon) for 24 hrs. After washing with cold PBS, cells were fixed by treating at 4° C. for 20 min with 4% paraformaldehyde in PBS, permeabilized with 0.1% Triton X-100 in PBS containing 10% FBS for 10 min, and blocked with 2% BSA for 1 hr. After washing for four times with PBS, primary antibodies were added onto the chambers and cell were incubated overnight at 4° C., washed again with PBS followed by incubation with the secondary antibody for 1 hr at room temperature. Cell were washed and then mounted and observed under microscope (Leica Upright Confocal SP5). The primary antibodies used in the assay are against: HER^2 (Zymed, 28004), Grp94 (Stressgen, SPA-850), Hsp70 (Stressgen, SPA-810), LAMP1-FITC (Abcam, ab25406), EEA1 (Abcam, ab70521), 58K Golgi-FITC (Abcam, ab27043) and Calnexin (BD, 610523).
smiles,measurement,setting,value
COc1c(C)cnc(Cn2cnc3c(Cl)nc(N)nc32)c1C [BIIB021],decrease in binding efficacy for Trap-1,[1],5 fold
same,loss of affinity for Grp94,[2],approximately 10 fold
CN(C)c1cc2c(cc1Sc1nc3c(N)nccc3n1CCNCC(C)(C)C)OCO2 [CUDC-305/Debio092],loss of affinity for Trap-1,[1],~2 log
same,loss of affinity for Grp94,[2],approximately 10 fold
C=CCNC1=C2C[C@@H](C)C[C@H](OC)[C@H](O)[C@@H](C)/C=C(\C)[C@H](OC(N)=O)[C@@H](OC)/C=C\C=C(/C)C(=O)NC(=CC1=O)C2=O [Compound 17-AAG],loss of affinity for Trap-1,[1],~2 log
same,IC50,"[1]; read-out: Trap-1 IC50, 43a as FP probe",1.5 µM
same,IC50,"[1]; read-out: binding affinity (FP competition), probe 115a",1.5 µM
same,IC50,[3],0.031 µM
CCNC(=O)c1noc(-c2cc(C(C)C)c(O)cc2O)c1-c1ccc(CN2CCOCC2)cc1 [NVP-AUY922],decrease in binding efficacy for Trap-1,[1],2 fold
C#CCCCn1c(Sc2cc(C)cc(C)c2)nc2c(N)ncnc21 [PU-H4],IC50,[4],158 ± 9.7 µM
same,IC50,[5],> 300 µM
same,IC50,[6],11.5 ± 0.92 µM
same,IC50,[7],> 300 µM
C#CCCCn1c(Sc2cc(C)ccc2C)nc2c(N)ncnc21 [PU-H27],IC50,[4],204 ± 11 µM
same,IC50,[5],> 300 µM
same,IC50,[7],> 300 µM
C#CCCCn1c(Sc2cc(Cl)ccc2Cl)nc2c(N)ncnc21 [PU-H42],IC50,[4],5.1 ± 4.2 µM
same,IC50,[8],60.4 ± 1.6 µM
same,IC50,[6],0.53 ± 0.1 µM
same,IC50,[7],> 100 µM
C#CCCCn1c(Sc2cc(Cl)c(Cl)cc2Cl)nc2c(N)ncnc21 [PU-H51],IC50,[4],78.4 ± 8.9 µM
same,IC50,[5],> 200 µM
same,IC50,[6],0.17 ± 0.11 µM
same,IC50,[7],> 200 µM
CC1(C)CC(=O)c2c(C(F)(F)F)nn(-c3ccc(C(N)=O)c(N[C@H]4CC[C@H](O)CC4)c3)c2C1 [SNX-2112],loss of affinity for Grp94,[2],approximately 10 fold
"C[C@@H](NCCCn1c(Sc2cc(Cl)cc(Cl)c2)nc2c(N)ncnc21)C1CC1 [SO-III-128B, (R)-9-(3-((1-cyclopropylethyl)amino)propyl)-8-((3,5-dichlorophenyl)thio)-9H-purin-6-amine]",IC50,[5],35.6 µM
same,IC50,[9],0.84 µM
same,IC50,[6],0.276 µM
CC(C)c1cc(-c2n[nH]c(=O)n2-c2ccc3c(ccn3C)c2)c(O)cc1O [STA-9090],IC50,[3],0.01 µM
"CC(C)NCCCn1c(Sc2ccc(Cl)cc2Cl)nc2c(N)ncnc21 [WS-12, 8-((2,4-Dichlorophenyl)thio)-9-(3-(isopropylamino)propyl)-9H-purin-6-amine]",IC50,[8],20.3 ± 1.2 µM
same,IC50,[6],0.41 µM and 0.407 µM
"CC(C)NCCCn1c(Sc2cc(Cl)cc(Cl)c2)nc2c(N)ncnc21 [WS-13, 8-((3,5-Dichlorophenyl)thio)-9-(3-(isopropylamino)propyl)-9H-purin-6-amine]",IC50,[8],27.3 ± 3.5 µM
same,IC50,[6],0.22 ± 0.08 µM
same,IC50,"[7]; read-out: Hsp90β, FP competition, 6 nM Cy3B-GM, 10 nM protein, 4° C. for 24 h",41.8 ± 1.3 µM
CS(=O)(=O)CCNCc1ccc(-c2ccc3ncnc(Nc4ccc(OCc5cccc(F)c5)c(Cl)c4)c3c2)o1 [lapatinib],effect on HER2 architecture at the plasma membrane,[10],does not disrupt the HER^2 architecture at the plasma membrane; also recorded: No such effect was observed
